Data published in patent publication US20170333591A9, “ABSORBENT ARTICLE COMPRISING MALODOR REDUCTION COMPOSITIONS” (The Procter & Gamble Company, priority 2014, published 2017).

Test: Log of liquid dish neat product liquid-air partition coefficient
Type: physicochemical
Details: for Log of liquid dish neat product liquid-air partition coefficient (Comment Code): code letters K/L of the Comment Code

SMILES: CC1(O)CCC2=C(CCCC2(C)C)C1 (stereo not drawn) [Material 676]
- Log of liquid dish neat product liquid-air partition coefficient (Comment Code): K (Log of liquid dish neat product liquid-air partition coefficient greater than or equal to 7)

SMILES: CCC(O)COC1CCCCC1C(C)(C)C (stereo not drawn) [Material 677]
- Log of liquid dish neat product liquid-air partition coefficient (Comment Code): K (Log of liquid dish neat product liquid-air partition coefficient greater than or equal to 7)

SMILES: CC1C(C)(C)C2CCC3CC(C)(C)OC3C2C1(C)C (stereo not drawn) [Material 679]
- Comment Code: Log of liquid dish neat product liquid-air partition coefficient: K (Log of liquid dish neat product liquid-air partition coefficient greater than or equal to 7)
- Log of liquid dish neat product liquid-air partition coefficient (Comment Code): K (Log of liquid dish neat product liquid-air partition coefficient greater than or equal to 7)

SMILES: CC1C(C)(C)C2CCC3CC(C)(C)OC3C2C1(C)C (stereo not drawn) [Material 680]
- Comment Code: Log of liquid dish neat product liquid-air partition coefficient: K (Log of liquid dish neat product liquid-air partition coefficient greater than or equal to 7)
- Log of liquid dish neat product liquid-air partition coefficient (Comment Code): K (Log of liquid dish neat product liquid-air partition coefficient greater than or equal to 7)

SMILES: CC(C)=C1CCC2=CC(=O)CC(C)C2(C)C1 (stereo not drawn) [Material 684]
- Comment Code: Log of liquid dish neat product liquid-air partition coefficient: K (Log of liquid dish neat product liquid-air partition coefficient greater than or equal to 7)
- Log of liquid dish neat product liquid-air partition coefficient (Comment Code): K (Log of liquid dish neat product liquid-air partition coefficient greater than or equal to 7)

SMILES: CCC(=O)OC(C)(C)C1CC=C(C)CC1 (stereo not drawn) [Material 686]
- Log of liquid dish neat product liquid-air partition coefficient (Comment Code): K (Log of liquid dish neat product liquid-air partition coefficient greater than or equal to 7)

SMILES: CC(=O)OC(C)(C)C1CC=C(C)CC1 (stereo not drawn) [Material 687]
- Comment Code: Log of liquid dish neat product liquid-air partition coefficient: K (Log of liquid dish neat product liquid-air partition coefficient greater than or equal to 7)

SMILES: C=CC(C)=CCC=C(C)CCC=C(C)C=O [Material 691]
- Log of liquid dish neat product liquid-air partition coefficient (Comment Code): K (Log of liquid dish neat product liquid-air partition coefficient greater than or equal to 7)

SMILES: C=C(C)C1CCC2(C)CCC=C(C)C2C1 (stereo not drawn) [Material 692]
- Log of liquid dish neat product liquid-air partition coefficient (Comment Code): K (Log of liquid dish neat product liquid-air partition coefficient greater than or equal to 7)

SMILES: CC(=CCCC1(C)C2CC3C(C2)C31C)CO (stereo not drawn) [Material 694]
- Comment Code: Log of liquid dish neat product liquid-air partition coefficient: K (Log of liquid dish neat product liquid-air partition coefficient greater than or equal to 7)
- Log of liquid dish neat product liquid-air partition coefficient (Comment Code): K (Log of liquid dish neat product liquid-air partition coefficient greater than or equal to 7)

SMILES: C=CCCC(=O)C1=CCCC(C)(C)C1 [Material 697]
- Log of liquid dish neat product liquid-air partition coefficient (Comment Code): K (Log of liquid dish neat product liquid-air partition coefficient greater than or equal to 7)

SMILES: CC(O)CCC1CCCCC1 (stereo not drawn) [Material 699]
- Comment Code: Log of liquid dish neat product liquid-air partition coefficient: K (Log of liquid dish neat product liquid-air partition coefficient greater than or equal to 7)

SMILES: CCC(=O)C=CC1C(C)=CCCC1(C)C (stereo not drawn) [Material 700]
- Log of liquid dish neat product liquid-air partition coefficient (Comment Code): K (Log of liquid dish neat product liquid-air partition coefficient greater than or equal to 7)

SMILES: CC(C=O)=Cc1ccccc1 [Material 701]
- Comment Code: Log of liquid dish neat product liquid-air partition coefficient: K (Log of liquid dish neat product liquid-air partition coefficient greater than or equal to 7)

SMILES: CC(=O)C(C)=CC1C(C)=CCCC1(C)C (stereo not drawn) [Material 703]
- Comment Code: Log of liquid dish neat product liquid-air partition coefficient: K (Log of liquid dish neat product liquid-air partition coefficient greater than or equal to 7)

SMILES: CC(=O)C=CC1C(C)=CCC(C)C1(C)C (stereo not drawn) [Material 704]
- Log of liquid dish neat product liquid-air partition coefficient (Comment Code): K (Log of liquid dish neat product liquid-air partition coefficient greater than or equal to 7)

SMILES: CC1=CCCC(C)=CCC(C)(C)C=CC1 [Material 706]
- Log of liquid dish neat product liquid-air partition coefficient (Comment Code): K (Log of liquid dish neat product liquid-air partition coefficient greater than or equal to 7)

SMILES: C=C1CCCC(C)(C)C2C=C(C)CCC12 (stereo not drawn) [Material 707]
- Log of liquid dish neat product liquid-air partition coefficient (Comment Code): K (Log of liquid dish neat product liquid-air partition coefficient greater than or equal to 7)

SMILES: C=CC(C)=CCC=C(C)CCC=C(C)C [Material 710]
- Log of liquid dish neat product liquid-air partition coefficient (Comment Code): K (Log of liquid dish neat product liquid-air partition coefficient greater than or equal to 7)

SMILES: CC1=CCCC2(C)CCC(C(C)(C)O)CC12 (stereo not drawn) [Material 712]
- Comment Code: Log of liquid dish neat product liquid-air partition coefficient: K (Log of liquid dish neat product liquid-air partition coefficient greater than or equal to 7)
- Log of liquid dish neat product liquid-air partition coefficient (Comment Code): K (Log of liquid dish neat product liquid-air partition coefficient greater than or equal to 7)

SMILES: CC(C)=CCCC(C)c1ccc(C)cc1 (stereo not drawn) [Material 713]
- Log of liquid dish neat product liquid-air partition coefficient (Comment Code): K (Log of liquid dish neat product liquid-air partition coefficient greater than or equal to 7)

SMILES: CC1=CC2C(C(C)C)CCC(C)(O)C2CC1 (stereo not drawn) [Material 716]
- Log of liquid dish neat product liquid-air partition coefficient (Comment Code): K (Log of liquid dish neat product liquid-air partition coefficient greater than or equal to 7)

SMILES: CC(C)=CCCC(C)(O)C1CC=C(C)CC1 (stereo not drawn) [Material 718]
- Log of liquid dish neat product liquid-air partition coefficient (Comment Code): K (Log of liquid dish neat product liquid-air partition coefficient greater than or equal to 7)

SMILES: CC(C)=CCC=C(C)C1CC=C(C)CC1 (stereo not drawn) [Material 719]
- Log of liquid dish neat product liquid-air partition coefficient (Comment Code): K (Log of liquid dish neat product liquid-air partition coefficient greater than or equal to 7)

SMILES: CC1=CCCC2(C)CCC3CC12OC3(C)C (stereo not drawn) [Material 726]
- Comment Code: Log of liquid dish neat product liquid-air partition coefficient: K (Log of liquid dish neat product liquid-air partition coefficient greater than or equal to 7)
- Log of liquid dish neat product liquid-air partition coefficient (Comment Code): K (Log of liquid dish neat product liquid-air partition coefficient greater than or equal to 7)

SMILES: CC(C)=CCCC1=CCC(C)(C=O)CC1 (stereo not drawn) [Material 727]
- Log of liquid dish neat product liquid-air partition coefficient (Comment Code): K (Log of liquid dish neat product liquid-air partition coefficient greater than or equal to 7)

SMILES: CCCC(O)Cc1ccccc1 (stereo not drawn) [Material 730]
- Log of liquid dish neat product liquid-air partition coefficient (Comment Code): K (Log of liquid dish neat product liquid-air partition coefficient greater than or equal to 7)

SMILES: CCC(C)(O)CCc1ccccc1 (stereo not drawn) [Material 731]
- Log of liquid dish neat product liquid-air partition coefficient (Comment Code): K (Log of liquid dish neat product liquid-air partition coefficient greater than or equal to 7)

SMILES: CC(C)CCCC(C)CCCC(C)C=O (stereo not drawn) [Material 741]
- Log of liquid dish neat product liquid-air partition coefficient (Comment Code): K (Log of liquid dish neat product liquid-air partition coefficient greater than or equal to 7)

SMILES: Cc1ccc(CC(C)C=O)cc1 (stereo not drawn) [Material 742]
- Log of liquid dish neat product liquid-air partition coefficient (Comment Code): K (Log of liquid dish neat product liquid-air partition coefficient greater than or equal to 7)

SMILES: C=CCOC(=O)COc1ccccc1 [Material 743]
- Comment Code: Log of liquid dish neat product liquid-air partition coefficient: K (Log of liquid dish neat product liquid-air partition coefficient greater than or equal to 7)

SMILES: C=CCOCCc1ccccc1 [Material 744]
- Comment Code: Log of liquid dish neat product liquid-air partition coefficient: K (Log of liquid dish neat product liquid-air partition coefficient greater than or equal to 7)

SMILES: C=CCOC(=O)CCC1CCCCC1 [Material 746]
- Log of liquid dish neat product liquid-air partition coefficient (Comment Code): K (Log of liquid dish neat product liquid-air partition coefficient greater than or equal to 7)

SMILES: C=CCOC(=O)COCCC(C)C [Material 748]
- Log of liquid dish neat product liquid-air partition coefficient (Comment Code): K (Log of liquid dish neat product liquid-air partition coefficient greater than or equal to 7)

SMILES: CCC(=O)N(CC)c1cccc(C)c1 [Material 755]
- Comment Code: Log of liquid dish neat product liquid-air partition coefficient: K (Log of liquid dish neat product liquid-air partition coefficient greater than or equal to 7)

SMILES: CC(C)=CCCC(C)CCCC(C)C=O (stereo not drawn) [Material 757]
- Log of liquid dish neat product liquid-air partition coefficient (Comment Code): K (Log of liquid dish neat product liquid-air partition coefficient greater than or equal to 7)

SMILES: COc1ccc(C(C)=O)cc1 [Material 761]
- Comment Code: Log of liquid dish neat product liquid-air partition coefficient: K (Log of liquid dish neat product liquid-air partition coefficient greater than or equal to 7)

SMILES: CCCOC(C)OCCc1ccccc1 (stereo not drawn) [Material 766]
- Log of liquid dish neat product liquid-air partition coefficient (Comment Code): K (Log of liquid dish neat product liquid-air partition coefficient greater than or equal to 7)

SMILES: COCCOC(C)OCc1ccccc1 (stereo not drawn) [Material 768]
- Log of liquid dish neat product liquid-air partition coefficient (Comment Code): K (Log of liquid dish neat product liquid-air partition coefficient greater than or equal to 7)

SMILES: C=C(C)C1CCC2(C)CCC=C(C)C2C1 (stereo not drawn) [Material 774]
- Log of liquid dish neat product liquid-air partition coefficient (Comment Code): K (Log of liquid dish neat product liquid-air partition coefficient greater than or equal to 7)

SMILES: CC1=CCCC2(C)CCC(C(C)(C)O)CC12 (stereo not drawn) [Material 775]
- Comment Code: Log of liquid dish neat product liquid-air partition coefficient: K (Log of liquid dish neat product liquid-air partition coefficient greater than or equal to 7)
- Log of liquid dish neat product liquid-air partition coefficient (Comment Code): K (Log of liquid dish neat product liquid-air partition coefficient greater than or equal to 7)

SMILES: CC(C)c1ccc2ncccc2c1 [Material 778]
- Log of liquid dish neat product liquid-air partition coefficient (Comment Code): K (Log of liquid dish neat product liquid-air partition coefficient greater than or equal to 7)

SMILES: CC1(C)C2CC=C(CCC=O)C1C2 (stereo not drawn) [Material 781]
- Log of liquid dish neat product liquid-air partition coefficient (Comment Code): K (Log of liquid dish neat product liquid-air partition coefficient greater than or equal to 7)

SMILES: CC(=O)CCCC(C)CCCC(C)CCCC(C)C (stereo not drawn) [Material 782]
- Log of liquid dish neat product liquid-air partition coefficient (Comment Code): K (Log of liquid dish neat product liquid-air partition coefficient greater than or equal to 7)
